From the NIST ThermoML archive (doi:10.1021/acs.jced.6b00750)
Numbers after ± are expanded uncertainties.

Assay: xn = mol fraction of the nth substance listed
Settings: Liquid; for mass density: Vibrating wire densiometer; for viscosity: Vibrating wire viscometry

CCCCCCCCCCCCCCCC [hexadecane] + O=C=O
Settings	mass density [kg/m3]	viscosity [mPa·s]
373.08 K, 80110 kPa, x2 = 0.727	813.1 ± 2.5	0.581 ± 0.013
373.08 K, 80560 kPa, x2 = 0.069	773.5 ± 2.3	1.794 ± 0.038
373.08 K, 99990 kPa, x2 = 0.727	828.7 ± 2.5	0.659 ± 0.015
373.08 K, 100830 kPa, x2 = 0.069	783.5 ± 2.4	2.087 ± 0.047
373.08 K, 117640 kPa, x2 = 0.727	840.7 ± 2.5	0.735 ± 0.017
373.11 K, 20760 kPa, x2 = 0.5877	745.5 ± 2.3	0.463 ± 0.011
373.11 K, 20790 kPa, x2 = 0.5877	745.5 ± 2.3	0.463 ± 0.011
373.11 K, 40220 kPa, x2 = 0.5877	768.7 ± 2.4	0.564 ± 0.013
373.11 K, 60460 kPa, x2 = 0.5877	787.7 ± 2.4	0.67 ± 0.015
373.11 K, 80240 kPa, x2 = 0.5877	803.1 ± 2.4	0.775 ± 0.018
423.11 K, 11500 kPa, x2 = 0.069	694.2 ± 2.1	0.574 ± 0.013
423.11 K, 11890 kPa, x2 = 0.069	694.7 ± 2.1	0.576 ± 0.013
423.11 K, 21700 kPa, x2 = 0.069	705.2 ± 2.2	0.645 ± 0.015
423.11 K, 25910 kPa, x2 = 0.5877	708.9 ± 2.2	0.328 ± 0.008
423.11 K, 25970 kPa, x2 = 0.5877	709.4 ± 2.2	0.33 ± 0.008
423.11 K, 40190 kPa, x2 = 0.5877	730.3 ± 2.3	0.384 ± 0.009
423.11 K, 40710 kPa, x2 = 0.069	722.5 ± 2.2	0.778 ± 0.017
423.11 K, 42080 kPa, x2 = 0.727	730.1 ± 2.3	0.296 ± 0.008
423.11 K, 42200 kPa, x2 = 0.727	730.3 ± 2.3	0.296 ± 0.008
423.11 K, 60240 kPa, x2 = 0.5877	753.3 ± 2.3	0.462 ± 0.011
423.11 K, 60280 kPa, x2 = 0.727	755.6 ± 2.3	0.353 ± 0.009
423.11 K, 60590 kPa, x2 = 0.069	737.2 ± 2.2	0.929 ± 0.02
423.11 K, 80390 kPa, x2 = 0.727	777.7 ± 2.4	0.412 ± 0.01
423.11 K, 80460 kPa, x2 = 0.5877	772 ± 2.3	0.537 ± 0.012
423.11 K, 80740 kPa, x2 = 0.069	750 ± 2.3	1.083 ± 0.023
423.11 K, 100360 kPa, x2 = 0.727	795.9 ± 2.4	0.471 ± 0.011
423.11 K, 100800 kPa, x2 = 0.5877	787.9 ± 2.4	0.614 ± 0.014
423.11 K, 101550 kPa, x2 = 0.069	761.6 ± 2.3	1.253 ± 0.027
423.11 K, 118170 kPa, x2 = 0.5877	799.8 ± 2.4	0.683 ± 0.015
423.11 K, 120210 kPa, x2 = 0.727	811.4 ± 2.5	0.529 ± 0.012
473.15 K, 43620 kPa, x2 = 0.5877	697.7 ± 2.2	0.293 ± 0.008
473.15 K, 43720 kPa, x2 = 0.5877	697.7 ± 2.2	0.292 ± 0.008
473.15 K, 60700 kPa, x2 = 0.5877	720.7 ± 2.2	0.343 ± 0.009
473.15 K, 80450 kPa, x2 = 0.5877	742 ± 2.3	0.402 ± 0.01
473.15 K, 100840 kPa, x2 = 0.5877	760.2 ± 2.3	0.46 ± 0.011
473.15 K, 120610 kPa, x2 = 0.5877	775.2 ± 2.4	0.52 ± 0.012
473.26 K, 61090 kPa, x2 = 0.727	718.9 ± 2.2	0.267 ± 0.007
473.26 K, 61330 kPa, x2 = 0.727	719.1 ± 2.2	0.268 ± 0.007
473.26 K, 80480 kPa, x2 = 0.727	744 ± 2.3	0.313 ± 0.008
473.26 K, 100590 kPa, x2 = 0.727	765.1 ± 2.3	0.36 ± 0.009
473.26 K, 120860 kPa, x2 = 0.727	783 ± 2.4	0.407 ± 0.01
